Assay results as given in patent publication US20160122320A1, “USEFUL COMBINATIONS OF MONOBACTAM ANTIBIOTICS WITH BETA-LACTAMASE INHIBITORS” (Basilea Pharmaceutica AG, priority 2005, published 2016).
Where a name gives a salt, the structure may show the parent alone.

Tests used:
Assay in all cases: MIC, NCCLS broth microdilution
Type in all cases: cell-based
Serratia marcescens S6 = details: for MIC of antibiotic: antibiotic alone, no inhibitor; for MIC of antibiotic at fixed inhibitor concentration (4 mg/L): MIC of antibiotic compound 1 with the labelled bridged monobactam of formula II and clavulanate, 4 mg/L each
[1] = tested on: Klebsiella pneumoniae CF104; details: for MIC of antibiotic: antibiotic alone, no inhibitor; for MIC of antibiotic at fixed inhibitor concentration (4 mg/L): MIC of antibiotic compound 1 with the labelled bridged monobactam of formula II and clavulanate, 4 mg/L each
Acinetobacter sp. J2 = details: for MIC of antibiotic / MIC of antibiotic at fixed inhibitor concentration of 4 mg/L: Acinetobacter baumannii J2; for MIC of antibiotic: antibiotic alone, no inhibitor; for MIC of antibiotic at fixed inhibitor concentration (4 mg/L): Acinetobacter sp. J2, MIC of antibiotic compound 1 with the labelled bridged monobactam of formula II and clavulanate, 4 mg/L each
[2] = tested on: Pseudomonas aeruginosa 1973E; details: for MIC of antibiotic: antibiotic alone, no inhibitor; for MIC of antibiotic at fixed inhibitor concentration (4 mg/L): MIC of antibiotic compound 1 with the labelled bridged monobactam of formula II and clavulanate, 4 mg/L each
Procedure: Antimicrobial activity of the compounds and of their combinations was determined against a selection of organisms according to the standard procedures described by the National Committee for Clinical Laboratory Standards (National Committee for Clinical Laboratory. Standards (2000). Methods for Dilution Antimicrobial Susceptibility Tests for Bacteria That Grow Aerobically-Fifth Edition: Approved Standard M7-A5. NCCLS, Wayne, Pa., USA).
In all cases the final concentration of DMSO incubated with the bacteria is less than or equal to 1%. […] Plates were incubated overnight at an appropriate temperature (30° C. or 37° C.) and optical densities assessed by eye. The MIC value is defined as the lowest compound concentration completely inhibiting visible growth of the test organism. When combinations between compounds of formula I with compounds of formula II and are evaluated the compounds of formula I are tested in dilution series as described above while the compounds of formula II and III-XIII were present in all wells at a constant concentration of 4 μg/mL each.

[3] = tested on: Stenotrophomonas malthophilia 1AC736; details: for MIC of antibiotic / MIC of antibiotic at fixed inhibitor concentration of 4 mg/L: Stenotrophomonas maltophilia 1AC736; for MIC of antibiotic: antibiotic alone, no inhibitor; for MIC of antibiotic at fixed inhibitor concentration (4 mg/L): Stenotrophomonas malthophilia 1AC736, MIC of antibiotic compound 1 with the labelled bridged monobactam of formula II and clavulanate, 4 mg/L each
[4] = tested on: Pseudomonas aeruginosa MK1184; details: for MIC of antibiotic: antibiotic alone, no inhibitor; for MIC of antibiotic at fixed inhibitor concentration (4 mg/L): MIC of antibiotic compound 1 with the labelled bridged monobactam of formula II and clavulanate, 4 mg/L each
Enterobacter cloacae P99 = details: for MIC of antibiotic: antibiotic alone, no inhibitor; for MIC of antibiotic at fixed inhibitor concentration (4 mg/L): MIC of antibiotic compound 1 with the labelled bridged monobactam of formula II and clavulanate, 4 mg/L each

SMILES	MIC of antibiotic (Serratia marcescens S6)	MIC of antibiotic at fixed inhibitor concentration of 4 mg/L (Serratia marcescens S6; with 102 and clavulanate)	MIC of antibiotic [1]	MIC of antibiotic at fixed inhibitor concentration of 4 mg/L ([1]; with 102 and clavulanate)	MIC of antibiotic (Acinetobacter sp. J2)	MIC of antibiotic at fixed inhibitor concentration of 4 mg/L (Acinetobacter sp. J2; with 102 and clavulanate)	MIC of antibiotic [2]	MIC of antibiotic at fixed inhibitor concentration of 4 mg/L ([2]; with 102 and clavulanate)	MIC of antibiotic [3]	MIC of antibiotic at fixed inhibitor concentration of 4 mg/L ([3]; with 102 and clavulanate)	MIC of antibiotic [4]	MIC of antibiotic at fixed inhibitor concentration of 4 mg/L ([4]; with 102 and clavulanate)	MIC of antibiotic (Enterobacter cloacae P99)	MIC of antibiotic at fixed inhibitor concentration (4 mg/L) (Serratia marcescens S6)	MIC of antibiotic at fixed inhibitor concentration (4 mg/L) [1]	MIC of antibiotic at fixed inhibitor concentration (4 mg/L) (Acinetobacter sp. J2)	MIC of antibiotic at fixed inhibitor concentration (4 mg/L) [2]	MIC of antibiotic at fixed inhibitor concentration (4 mg/L) [3]	MIC of antibiotic at fixed inhibitor concentration (4 mg/L) [4]	MIC of antibiotic at fixed inhibitor concentration (4 mg/L) (Enterobacter cloacae P99)	further results
COn1cc(O)c(=O)cc1CON=C(C(=O)N[C@@H]1C(=O)N(S(=O)(=O)O)[C@H]1C)c1csc(N)n1 [Compound 5, (3S,4S)-3-{2-(2-amino(1,3-thiazol-4-yl))-3-[(5-hydroxy-1-methoxy-4-oxo(2-hydropyridyl))methoxy]-3-azaprop-2-enoylamino}-4-methyl-2-oxoazetidinesulfonic acid]	8 mg/L	1 mg/L	>32 mg/L	8 mg/L	>32 mg/L	32 mg/L	>32 mg/L	>32 mg/L	16 mg/L	4 mg/L	>32 mg/L	>32 mg/L	32 mg/L								MIC of antibiotic at fixed inhibitor concentration of 4 mg/L (Enterobacter cloacae P99; with 102 and clavulanate): 8 mg/L
COC(=O)c1ccc[n+](CC(=O)N2CC[C@@H]3[C@H]2C(=O)N3S(=O)(=O)[O-])c1C [Compound 115, (1S,5R)-2-{2-[3-(methoxycarbonyl)-2-methylpyridinium]acetyl}-7-oxo-2,6-diazabicyclo[3.2.0]heptane-6-sulfonate, inner salt]														0.25 mg/L	0.125 mg/L	>32 mg/L	4 mg/L	0.125 mg/L	16 mg/L	32 mg/L	
CCOC(=O)c1cccc(NC(=O)N2CC[C@@H]3[C@H]2C(=O)N3S(=O)(=O)[O-])c1.[Na+] [Compound 320, Sodium(1S,5R)-2-{N-[3-(ethoxycarbonyl)phenyl]carbamoyl}-7-oxo-2,6-diazabicyclo[3.2.0]heptane-6-sulfonate]														0.25 mg/L	0.5 mg/L	>32 mg/L	8 mg/L	0.125 mg/L	>32 mg/L	8 mg/L	
CNC(=O)c1ccc[n+](CC(=O)N2CC[C@@H]3[C@H]2C(=O)N3S(=O)(=O)[O-])c1 [Compound 101, (1S,5R)-2-{2-[3-(N-methylcarbamoyl)pyridinium]acetyl}-7-oxo-2,6-diazabicyclo[3.2.0]heptane-6-sulfonate, inner salt]														0.5 mg/L	2 mg/L	>32 mg/L	4 mg/L	0.125 mg/L	8 mg/L	32 mg/L	
C[C@H]1[C@H](NC(=O)/C(=N\OCc2cc(=O)c(O)cn2C)c2csc(N)n2)C(=O)N1S(=O)(=O)O [Compound 6, (3S,4S)-3-{(2Z)-2-(2-amino(1,3-thiazol-4-yl))-3-[(5-hydroxy-1-methyl-4-oxo(2-hydropyridyl))methoxy]-3-azaprop-2-enoylamino}-4-methyl-2-oxoazetidinesulfonic acid]	4 mg/L	0.5 mg/L	>32 mg/L	<0.06 mg/L	>32 mg/L	>32 mg/L	>32 mg/L	>32 mg/L	8 mg/L	4 mg/L	>32 mg/L	>32 mg/L	16 mg/L								MIC of antibiotic at fixed inhibitor concentration of 4 mg/L (Serratia marcescens S6; with 206 and clavulanate): 4 mg/L; MIC of antibiotic at fixed inhibitor concentration of 4 mg/L (Serratia marcescens S6; with 315 and clavulanate): 4 mg/L; MIC of antibiotic at fixed inhibitor concentration of 4 mg/L ([1]; with 206 and clavulanate): 0.5 mg/L; MIC of antibiotic at fixed inhibitor concentration of 4 mg/L ([1]; with 315 and clavulanate): 0.5 mg/L; MIC of antibiotic at fixed inhibitor concentration of 4 mg/L (Acinetobacter sp. J2; with 206 and clavulanate): 32 mg/L; MIC of antibiotic at fixed inhibitor concentration of 4 mg/L (Acinetobacter sp. J2; with 315 and clavulanate): >32 mg/L; MIC of antibiotic at fixed inhibitor concentration of 4 mg/L ([2]; with 206 and clavulanate): >32 mg/L; MIC of antibiotic at fixed inhibitor concentration of 4 mg/L ([2]; with 315 and clavulanate): >32 mg/L; MIC of antibiotic at fixed inhibitor concentration of 4 mg/L ([3]; with 206 and clavulanate): 4 mg/L; MIC of antibiotic at fixed inhibitor concentration of 4 mg/L ([3]; with 315 and clavulanate): 2 mg/L; MIC of antibiotic at fixed inhibitor concentration of 4 mg/L ([4]; with 206 and clavulanate): >32 mg/L; MIC of antibiotic at fixed inhibitor concentration of 4 mg/L ([4]; with 315 and clavulanate): >32 mg/L; MIC of antibiotic at fixed inhibitor concentration of 4 mg/L (Enterobacter cloacae P99; with 102 and clavulanate): 8 mg/L; MIC of antibiotic at fixed inhibitor concentration of 4 mg/L (Enterobacter cloacae P99; with 206 and clavulanate): 16 mg/L; MIC of antibiotic at fixed inhibitor concentration of 4 mg/L (Enterobacter cloacae P99; with 315 and clavulanate): 4 mg/L
